According to patent publication US8415469B2, “Compounds and methods for kinase modulation, and indications therefor” (Plexxikon Inc., priority 2005, dated 2013):

Tests used:
Type in all cases: biochemical
Jnk1 = biological target: T1, Jnk1 (Homo sapiens, UniProt P45983); experiment: AlphaScreen kinase assay, Jnk1; conditions: read-out: IC50, activity toward kinase Jnk1
T1 construct: purchased Upstate Biotechnology

Jnk3 = biological target: T2, Jnk3 (Homo sapiens, UniProt P53779); experiment: AlphaScreen kinase assay, Jnk3; conditions: read-out: IC50, activity toward kinase Jnk3
T2 construct: purchased Upstate Biotechnology

c-Raf-1 = biological target: T3, c-Raf-1 (Homo sapiens, UniProt P04049); experiment: AlphaScreen kinase assay, c-Raf-1; conditions: read-out: IC50, activity toward kinase c-Raf-1
T3 construct: purchased Upstate Biotechnology

Kit = biological target: T4, Kit (Homo sapiens, UniProt P10721); experiment: AlphaScreen kinase assay, Kit; conditions: read-out: IC50, activity toward kinase Kit
T4 construct: P1332.N6 BI PTP KIT M552-K948-X COD; His6 (N); made in house; host or cells: E. coli (PTP1B co-expressed)

B-Raf V600E = biological target: T5, B-Raf V600E (Homo sapiens, UniProt P15056, V600E); experiment: AlphaScreen kinase assay, B-Raf V600E; conditions: read-out: IC50, activity toward kinase B-Raf V600E
T5 construct: P4254. pFastBacBD-CDC37 BRAF D437-K722-X, V600E; His6 with pFastBac HT leader (TEV site) (N); made in house; host or cells: Sf9 (baculovirus; chaperone CDC37 co-expressed)

Fms = biological target: T6, Fms (Homo sapiens, UniProt P07333); experiment: AlphaScreen kinase assay, Fms; conditions: read-out: IC50, activity toward kinase Fms
T6 construct: purchased Upstate Biotechnology

B-Raf = biological target: T7, B-Raf (Homo sapiens, UniProt P15056); experiment: AlphaScreen kinase assay, B-Raf; conditions: read-out: IC50, activity toward kinase B-Raf
T7 construct: purchased Upstate Biotechnology

FGFR1 = biological target: T8, FGFR1 (Homo sapiens, UniProt P11362, C488A/C584S); experiment: AlphaScreen kinase assay, FGFR1; conditions: read-out: IC50, activity toward kinase FGFR
T8 construct: P1351.pET N6 BI-PTP FGFR A458-E765-X C488A, C584S; made in house; host or cells: E. coli (PTP1B co-expressed)
Source text: AlphaScreen assay was used to screen additional kinases. The assay is similarly dependent on the phosphorylation of a peptide substrate. In this assay, an antibody that recognizes phosphorylated substrate is bound to an acceptor bead. The peptide substrate is attached to biotin, which binds to a donor head that contains streptavidin. Thus phosphorylated substrate is bound by antibody and streptavidin, bringing the donor and acceptor heads into close proximity when kinase is not inhibited. The donor produces singlet oxygen which results in emission from the acceptor when they are in close proximity. Conversely, when kinase is inhibited, the donor and acceptor beads are not associated and the emission from the acceptor is reduced.
AlphaScreen assays were done using compounds dissolved in DMSO to a concentration of 20 mM. The compounds were diluted accordingly to the desired final concentrations in each sample well, using 1:3 serial dilution for a total of 8 concentration points. Plates were prepared such that each kinase reaction is 20 μl in 1× kinase buffer, 5% DMSO and 10 μM ATP. After incubation of the kinase reaction for 1 hour at room temperature, 5 μl of donor beads in stop buffer (50 mM EDTA in 1× kinase buffer) was added, the sample was mixed and incubated for 20 minutes at room temperature before adding 5 μl of acceptor beads in stop buffer. The samples were incubated for 60 minutes at room temperature and the signal per well was read on AlphaQuest reader.

Flt1 = biological target: T9, Flt1 (Homo sapiens, UniProt P17948); experiment: AlphaScreen kinase assay, Flt1; conditions: read-out: IC50, activity toward kinase Flt1
T9 construct: P1826.pETN6 BI-PTP FLT1 M799-D1165-X WT; His6 (N); made in house; host or cells: E. coli (PTP1B co-expressed)
T9 sequence (P17948 with tags, fused parts or gaps): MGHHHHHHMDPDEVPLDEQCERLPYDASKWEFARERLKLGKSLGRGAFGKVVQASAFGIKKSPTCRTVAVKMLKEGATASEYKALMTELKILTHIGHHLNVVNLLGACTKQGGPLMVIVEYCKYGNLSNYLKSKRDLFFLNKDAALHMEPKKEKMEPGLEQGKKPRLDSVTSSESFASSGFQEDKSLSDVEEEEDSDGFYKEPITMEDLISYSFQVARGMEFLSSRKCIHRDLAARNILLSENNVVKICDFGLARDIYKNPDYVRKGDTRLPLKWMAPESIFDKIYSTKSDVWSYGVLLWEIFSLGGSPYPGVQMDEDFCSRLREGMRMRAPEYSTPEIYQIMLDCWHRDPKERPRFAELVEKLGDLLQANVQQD

Ret = biological target: T10, Ret (Homo sapiens, UniProt P07949); experiment: AlphaScreen kinase assay, Ret; conditions: read-out: IC50, activity toward kinase Ret
T10 construct: P1378.pET-SF BI-PTP RET H661-R1012 HIS; made in house
T10 sequence (P07949 with tags, fused parts or gaps): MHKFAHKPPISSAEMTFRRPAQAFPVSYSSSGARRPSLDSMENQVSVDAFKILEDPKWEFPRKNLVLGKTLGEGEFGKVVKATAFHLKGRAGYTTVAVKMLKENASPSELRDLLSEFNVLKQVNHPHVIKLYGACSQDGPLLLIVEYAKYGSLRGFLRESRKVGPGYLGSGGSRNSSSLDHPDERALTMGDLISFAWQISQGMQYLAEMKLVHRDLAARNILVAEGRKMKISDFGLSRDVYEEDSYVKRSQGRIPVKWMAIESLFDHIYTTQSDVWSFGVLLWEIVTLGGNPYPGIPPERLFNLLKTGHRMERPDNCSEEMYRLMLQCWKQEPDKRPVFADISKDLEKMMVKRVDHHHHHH

Measured: IC50

T6 sequence (P07333 20-972): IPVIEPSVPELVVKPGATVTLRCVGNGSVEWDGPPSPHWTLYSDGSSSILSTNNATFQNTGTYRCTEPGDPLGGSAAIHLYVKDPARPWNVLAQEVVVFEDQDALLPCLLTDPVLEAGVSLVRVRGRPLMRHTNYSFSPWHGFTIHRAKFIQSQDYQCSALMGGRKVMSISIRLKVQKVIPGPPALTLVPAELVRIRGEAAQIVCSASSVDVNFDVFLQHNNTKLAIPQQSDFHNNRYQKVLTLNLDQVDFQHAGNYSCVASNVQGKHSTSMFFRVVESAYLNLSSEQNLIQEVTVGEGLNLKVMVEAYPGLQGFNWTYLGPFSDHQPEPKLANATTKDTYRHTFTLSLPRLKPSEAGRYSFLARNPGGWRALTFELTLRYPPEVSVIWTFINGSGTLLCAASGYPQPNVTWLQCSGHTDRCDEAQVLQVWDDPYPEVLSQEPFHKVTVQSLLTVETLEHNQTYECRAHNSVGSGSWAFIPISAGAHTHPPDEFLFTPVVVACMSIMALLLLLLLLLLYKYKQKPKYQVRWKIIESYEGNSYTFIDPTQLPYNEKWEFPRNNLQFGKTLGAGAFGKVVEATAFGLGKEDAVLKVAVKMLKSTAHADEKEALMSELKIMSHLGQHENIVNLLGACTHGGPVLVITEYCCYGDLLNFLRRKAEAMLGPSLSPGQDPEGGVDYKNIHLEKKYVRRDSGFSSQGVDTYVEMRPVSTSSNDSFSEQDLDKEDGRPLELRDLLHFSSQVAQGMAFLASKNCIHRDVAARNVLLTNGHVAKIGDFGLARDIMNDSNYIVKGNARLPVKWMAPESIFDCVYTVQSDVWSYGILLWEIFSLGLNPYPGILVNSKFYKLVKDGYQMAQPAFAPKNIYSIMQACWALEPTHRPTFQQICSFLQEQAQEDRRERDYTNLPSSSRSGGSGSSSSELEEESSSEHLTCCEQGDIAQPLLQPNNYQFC
T7 sequence (P15056 whole entry): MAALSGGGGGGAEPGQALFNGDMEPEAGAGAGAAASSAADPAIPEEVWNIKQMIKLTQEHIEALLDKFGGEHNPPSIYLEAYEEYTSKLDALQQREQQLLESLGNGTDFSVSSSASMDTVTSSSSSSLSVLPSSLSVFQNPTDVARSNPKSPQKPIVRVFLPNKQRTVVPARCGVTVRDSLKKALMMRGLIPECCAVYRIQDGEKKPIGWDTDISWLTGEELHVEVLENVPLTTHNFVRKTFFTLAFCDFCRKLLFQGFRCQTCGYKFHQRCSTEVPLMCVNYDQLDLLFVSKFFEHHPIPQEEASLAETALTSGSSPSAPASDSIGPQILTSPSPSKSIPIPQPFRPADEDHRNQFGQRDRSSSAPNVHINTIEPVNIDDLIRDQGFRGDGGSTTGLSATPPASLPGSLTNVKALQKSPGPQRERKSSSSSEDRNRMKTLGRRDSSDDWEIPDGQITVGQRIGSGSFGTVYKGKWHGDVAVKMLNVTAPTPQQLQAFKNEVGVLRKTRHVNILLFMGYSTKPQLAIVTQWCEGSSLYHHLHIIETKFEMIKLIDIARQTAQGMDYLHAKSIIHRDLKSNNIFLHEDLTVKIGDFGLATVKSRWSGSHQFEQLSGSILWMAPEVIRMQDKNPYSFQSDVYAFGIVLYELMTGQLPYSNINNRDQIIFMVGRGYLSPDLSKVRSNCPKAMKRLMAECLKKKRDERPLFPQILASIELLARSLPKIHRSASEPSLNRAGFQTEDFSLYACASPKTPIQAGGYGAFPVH
T5 sequence (P15056 with tags, fused parts or gaps V600E): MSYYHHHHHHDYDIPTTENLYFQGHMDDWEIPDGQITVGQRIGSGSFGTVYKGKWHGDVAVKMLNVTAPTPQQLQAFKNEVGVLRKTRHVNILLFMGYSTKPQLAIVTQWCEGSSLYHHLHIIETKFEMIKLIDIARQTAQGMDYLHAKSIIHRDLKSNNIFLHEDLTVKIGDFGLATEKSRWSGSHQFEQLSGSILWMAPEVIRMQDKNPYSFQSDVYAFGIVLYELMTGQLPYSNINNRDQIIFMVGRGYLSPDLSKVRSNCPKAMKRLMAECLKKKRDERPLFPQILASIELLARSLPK
T1 sequence (P45983 whole entry): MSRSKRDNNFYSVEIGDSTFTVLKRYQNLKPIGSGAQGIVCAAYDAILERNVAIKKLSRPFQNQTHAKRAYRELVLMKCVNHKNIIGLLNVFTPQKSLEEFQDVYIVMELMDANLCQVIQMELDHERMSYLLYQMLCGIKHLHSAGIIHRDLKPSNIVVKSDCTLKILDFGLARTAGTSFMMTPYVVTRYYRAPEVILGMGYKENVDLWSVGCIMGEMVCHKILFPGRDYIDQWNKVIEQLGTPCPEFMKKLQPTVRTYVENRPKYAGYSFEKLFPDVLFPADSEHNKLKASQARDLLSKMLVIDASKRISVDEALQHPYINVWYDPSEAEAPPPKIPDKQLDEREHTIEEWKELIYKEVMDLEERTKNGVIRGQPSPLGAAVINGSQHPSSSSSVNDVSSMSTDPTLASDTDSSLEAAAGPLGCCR
T8 sequence (P11362 458-765 C488A/C584S): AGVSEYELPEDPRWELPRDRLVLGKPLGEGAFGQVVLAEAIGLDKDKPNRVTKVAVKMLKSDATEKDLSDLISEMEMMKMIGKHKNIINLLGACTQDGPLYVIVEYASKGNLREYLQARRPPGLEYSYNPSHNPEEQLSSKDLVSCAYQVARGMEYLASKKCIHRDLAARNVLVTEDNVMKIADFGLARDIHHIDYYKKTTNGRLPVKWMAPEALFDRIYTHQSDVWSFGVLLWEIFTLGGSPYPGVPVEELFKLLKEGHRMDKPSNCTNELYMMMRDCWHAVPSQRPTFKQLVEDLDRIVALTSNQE
T3 sequence (P04049 whole entry): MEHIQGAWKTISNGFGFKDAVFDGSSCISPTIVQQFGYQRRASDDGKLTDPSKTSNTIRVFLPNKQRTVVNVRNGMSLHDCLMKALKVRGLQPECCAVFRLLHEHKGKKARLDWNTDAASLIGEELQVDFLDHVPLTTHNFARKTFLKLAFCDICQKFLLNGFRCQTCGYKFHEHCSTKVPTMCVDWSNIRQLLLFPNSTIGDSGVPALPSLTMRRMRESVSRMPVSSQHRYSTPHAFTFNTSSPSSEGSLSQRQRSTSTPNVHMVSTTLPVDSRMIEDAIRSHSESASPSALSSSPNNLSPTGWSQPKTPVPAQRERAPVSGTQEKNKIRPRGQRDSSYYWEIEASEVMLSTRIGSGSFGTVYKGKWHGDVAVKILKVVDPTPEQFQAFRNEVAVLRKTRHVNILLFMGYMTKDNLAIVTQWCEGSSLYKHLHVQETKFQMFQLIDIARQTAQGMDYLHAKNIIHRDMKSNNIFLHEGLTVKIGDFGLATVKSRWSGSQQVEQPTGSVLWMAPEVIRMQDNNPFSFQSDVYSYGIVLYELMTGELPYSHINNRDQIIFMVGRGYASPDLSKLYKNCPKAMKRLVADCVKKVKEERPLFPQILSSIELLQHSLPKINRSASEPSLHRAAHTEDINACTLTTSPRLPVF
T4 sequence (P10721 with tags, fused parts or gaps): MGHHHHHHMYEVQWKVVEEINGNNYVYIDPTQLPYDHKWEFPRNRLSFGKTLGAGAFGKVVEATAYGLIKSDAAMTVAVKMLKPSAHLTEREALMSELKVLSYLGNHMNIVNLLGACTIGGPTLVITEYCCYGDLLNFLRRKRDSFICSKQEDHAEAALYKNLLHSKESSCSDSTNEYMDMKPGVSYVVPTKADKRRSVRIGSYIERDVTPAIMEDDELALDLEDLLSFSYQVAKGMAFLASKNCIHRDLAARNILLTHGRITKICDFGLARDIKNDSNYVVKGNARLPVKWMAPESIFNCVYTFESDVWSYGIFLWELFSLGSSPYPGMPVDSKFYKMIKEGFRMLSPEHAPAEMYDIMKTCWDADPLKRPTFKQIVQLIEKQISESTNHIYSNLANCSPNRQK
T2 sequence (P53779 whole entry): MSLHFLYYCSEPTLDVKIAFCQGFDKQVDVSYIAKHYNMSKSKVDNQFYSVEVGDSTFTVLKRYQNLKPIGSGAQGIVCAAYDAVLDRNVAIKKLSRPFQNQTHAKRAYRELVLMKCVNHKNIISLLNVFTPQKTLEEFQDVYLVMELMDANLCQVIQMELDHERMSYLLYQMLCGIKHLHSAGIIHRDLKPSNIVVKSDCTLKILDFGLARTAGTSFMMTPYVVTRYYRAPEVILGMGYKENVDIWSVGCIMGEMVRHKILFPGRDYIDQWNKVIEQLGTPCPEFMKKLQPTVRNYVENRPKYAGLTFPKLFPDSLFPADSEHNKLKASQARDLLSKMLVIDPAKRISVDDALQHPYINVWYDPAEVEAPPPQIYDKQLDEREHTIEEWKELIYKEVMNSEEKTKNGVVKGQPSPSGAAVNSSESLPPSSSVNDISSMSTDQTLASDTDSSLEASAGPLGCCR

CN(C)c1ccc(Nc2ccc3cc[nH]c3n2)cc1 [Compound P-1356, N,N-Dimethyl-N′-(1H -pyrrolo[2,3-b]pyridin-6-yl)-benzene-1,4-diamine]
≤ 10 µM: Jnk1 | Jnk3

CC(C)c1ccc(S(=O)(=O)Nc2ccc(F)c(C(=O)c3c[nH]c4ncc(Cl)cc34)c2F)cc1 [Compound P-1839, N-[3-(5-chloro-1H-pyrrolo[2,3-b]pyridine-3-carbonyl)-2,4-difluoro-phenyl]-4-isopropyl-benzenesulfonamide]
≤ 10 µM: c-Raf-1 | Kit | Jnk1 | B-Raf V600E | Fms | B-Raf

CCCS(=O)(=O)Nc1ccc(F)c(C(=O)c2c[nH]c3ncc(-c4cccc(C(N)=O)c4)cc23)c1F [Compound P-1549, 3-{3-[2,6-Difluoro-3-(propane-1-sulfonylamino)-benzoyl]-1H-pyrrolo[2,3-b]pyridin-5-yl}-benzamide]
not listed: Jnk3 | c-Raf-1 | Ret
≤ 10 µM: all other assays above

O=C(c1c[nH]c2ncc(-c3ccc(Cl)cc3)cc12)c1cccc2c1ccn2C(=O)NCc1ccccc1 [Compound P-1618, 4-[5-(4-Chloro-phenyl)-1H-pyrrolo[2,3-b]pyridine-3-carbonyl]-indole-1-carboxylic acid benzylamide]
≤ 10 µM: Jnk1 | Jnk3 | Fms | Flt1

CCCCN(CCCC)C(=O)n1ccc2c(C(=O)c3c[nH]c4ncc(-c5cccnc5)cc34)cccc21 [Compound P-1636, 4-(5-pyridin-3-yl-1H-pyrrolo[2,3-b]pyridine-3-carbonyl)-indole-1-carboxylic acid dibutylamide]
≤ 10 µM: Jnk1 | B-Raf V600E | Jnk3 | Fms | B-Raf

O=C(Nc1cccc(C(=O)c2c[nH]c3ncc(Cl)cc23)c1)Nc1ccon1 [Compound P-1775, 1-[3-(5-Chloro-1H-pyrrolo[2,3-b]pyridine-3-carbonyl)-phenyl]-3-isoxazol-3-yl-urea]
≤ 10 µM: Jnk1 | B-Raf V600E | Jnk3 | Fms | B-Raf

COc1ccc(NC(=O)Nc2cccc(C(=O)c3c[nH]c4ncccc34)c2)cc1OC [Compound P-1708, 1-(3,4-Dimethoxy-phenyl)-3-[3-(1H-pyrrolo[2,3-b]pyridine-3-carbonyl)-phenyl]-urea]
≤ 10 µM: Kit | Jnk1 | B-Raf V600E | Fms | B-Raf

O=C(NCc1ccccc1)Nc1cccc(C(=O)c2c[nH]c3ncc(Br)cc23)c1 [Compound P-1553, 1-Benzyl-3-[3-(5-bromo-1H-pyrrolo[2,3-b]pyridine-3-carbonyl)-phenyl]-urea]
≤ 10 µM: Kit | Jnk1 | B-Raf V600E | Fms | Flt1 | B-Raf

CCCS(=O)(=O)Nc1ccc(F)c(C(=O)c2c[nH]c3ncc(-c4ccc(F)cc4)cc23)c1F [Compound P-1260, Propane-1-sulfonic acid {2,4-difluoro-3-[5-(4-fluoro-phenyl)-1H-pyrrolo[2.3 b]pyridine-3-carbonyl]-phenyl}-amide]
not listed: Jnk3 | Ret
≤ 10 µM: all other assays above

O=C(c1c[nH]c2ncc(-c3cccnc3)cc12)c1cccc2c1ccn2COCc1ccccc1 [Compound P-1523, (1-Benzyloxymethyl-1H-indol-4-yl)-(5-pyridin-3-yl-1H-pyrrolo[2,3-b]pyridin-3-yl)-methanone]
≤ 10 µM: Jnk1 | Flt1

O=C(Nc1cccc(C(=O)c2c[nH]c3ncccc23)c1)Nc1ccc(F)c(F)c1 [Compound P-1706, 1-(3,4-Difluoro-phenyl)-3-[3-(1H-pyrrolo[2,3-b]pyridine-3-carbonyl)-phenyl]-urea]
≤ 10 µM: Kit | Jnk1 | B-Raf V600E | Jnk3 | Fms | B-Raf

O=C(c1ccc(Cl)cc1Cl)c1c[nH]c2ncc(-c3cccnc3)cc12 [Compound P-1556]
≤ 10 µM: Jnk1 | B-Raf V600E | Fms | FGFR1 | Flt1 | B-Raf

CCCCNC(=O)Nc1cccc(C(=O)c2c[nH]c3ncc(Br)cc23)c1 [Compound P-1596, 1-[3-(5-bromo-1H-pyrrolo[2,3-b]pyridine-3-carbonyl)-phenyl]-3-butyl-urea]
≤ 10 µM: Jnk1 | B-Raf V600E | Fms | Flt1 | B-Raf

CCCS(=O)(=O)Nc1ccc(F)c(C(=O)c2c[nH]c3ncc(-c4cccc(N5CCOCC5)c4)cc23)c1F [Compound P-1873, Propane-1-sulfonic acid {2,4-difluoro-3-[5-(3-morpholin-4-yl-phenyl)-1H-pyrrolo[2,3-b]pyridine-3-carbonyl]-phenyl}-amide]
≤ 10 µM: c-Raf-1 | Kit | Jnk1 | B-Raf V600E | Fms | B-Raf

CS(=O)(=O)Nc1cccc(-c2cnc3[nH]cc(C(=O)c4c(Cl)ccc(NS(C)(=O)=O)c4F)c3c2)c1 [Compound P-0745, N-{4-Chloro-2-fluoro-3-[5-(3-methanesulfonylamino-phenyl)-1H-pyrrolo[2,3-b]pyridine-3-carbonyl]-phenyl}-methanesulfonamide]
≤ 10 µM: c-Raf-1 | Jnk1 | B-Raf V600E | Ret | FGFR1 | B-Raf

CCCS(=O)(=O)Nc1ccc(F)c(C(=O)c2c[nH]c3ncc(N4CCC(C)CC4)cc23)c1F [Compound P-0860, propane-1-sulfonic acid {2,4-difluoro-3-[5-(4-methyl-piperidin-1-yl)-1H-pyrrolo[2,3-b]pyridine-3-carbonyl]-phenyl}-amide]
≤ 10 µM: c-Raf-1 | Kit | Jnk1 | B-Raf V600E | FGFR1 | B-Raf

CCCS(=O)(=O)Nc1ccc(F)c(C(=O)c2c[nH]c3ncc(-c4ccc(OC)nc4)cc23)c1F [Compound P-1879, Propane-1-sulfonic acid {2,4-difluoro-3-[5-(6-methoxy-pyridin-3-yl)-1H-pyrrolo[2,3-b]pyridine-3-carbonyl]-phenyl}-amide]
≤ 10 µM: c-Raf-1 | Kit | Jnk1 | B-Raf V600E | Fms | B-Raf

CCCS(=O)(=O)Nc1ccc(F)c(C(=O)c2c[nH]c3ncc(-c4cccc(CN5CCOCC5)c4)cc23)c1F [Compound P-1878, Propane-1-sulfonic acid {2,4-difluoro-3-[5-(3-morpholin-4-ylmethyl-phenyl)-1H-pyrrolo[2,3-b]pyridine-3-carbonyl]-phenyl}-amide]
≤ 10 µM: c-Raf-1 | Kit | Jnk1 | B-Raf V600E | Fms | B-Raf

COc1cccc(NC(=O)Nc2cccc(C(=O)c3c[nH]c4ncccc34)c2)c1 [Compound P-1707, 1-(3-Methoxy-phenyl)-3-[3-(1H-pyrrolo[2,3-b]pyridine-3-carbonyl)-phenyl]-urea]
≤ 10 µM: Kit | Jnk1 | B-Raf V600E | Jnk3 | Fms | B-Raf
